In ChEMBL document CHEMBL3301458, “MMV Malaria Box hERG screening”:
The source made the active and inactive calls. How the calls were made is not given here.

Columns and labels:
[1] = molecular target: T1, hERG (Kv11.1, KCNH2) (Homo sapiens, UniProt Q12809); assay: in vitro
Description: MMV: Malaria Box compounds were tested for inhibition of the human ether a go-go related gene (hERG), Kv11.1 channel, using IonWorks 384-well patch clamp electrophysiology at 1.1uM (3 independent assay plates up to 12 cells per concentration).

[2] = molecular target: T1, hERG (Kv11.1, KCNH2); assay: in vitro; remark: listed apart in the source
Description: MMV: Malaria Box compounds were tested for inhibition of the human ether a go-go related gene (hERG), Kv11.1 channel, using IonWorks 384-well patch clamp electrophysiology at 11.1uM (3 independent assay plates up to 12 cells per concentration).

T1 sequence (Q12809 whole entry): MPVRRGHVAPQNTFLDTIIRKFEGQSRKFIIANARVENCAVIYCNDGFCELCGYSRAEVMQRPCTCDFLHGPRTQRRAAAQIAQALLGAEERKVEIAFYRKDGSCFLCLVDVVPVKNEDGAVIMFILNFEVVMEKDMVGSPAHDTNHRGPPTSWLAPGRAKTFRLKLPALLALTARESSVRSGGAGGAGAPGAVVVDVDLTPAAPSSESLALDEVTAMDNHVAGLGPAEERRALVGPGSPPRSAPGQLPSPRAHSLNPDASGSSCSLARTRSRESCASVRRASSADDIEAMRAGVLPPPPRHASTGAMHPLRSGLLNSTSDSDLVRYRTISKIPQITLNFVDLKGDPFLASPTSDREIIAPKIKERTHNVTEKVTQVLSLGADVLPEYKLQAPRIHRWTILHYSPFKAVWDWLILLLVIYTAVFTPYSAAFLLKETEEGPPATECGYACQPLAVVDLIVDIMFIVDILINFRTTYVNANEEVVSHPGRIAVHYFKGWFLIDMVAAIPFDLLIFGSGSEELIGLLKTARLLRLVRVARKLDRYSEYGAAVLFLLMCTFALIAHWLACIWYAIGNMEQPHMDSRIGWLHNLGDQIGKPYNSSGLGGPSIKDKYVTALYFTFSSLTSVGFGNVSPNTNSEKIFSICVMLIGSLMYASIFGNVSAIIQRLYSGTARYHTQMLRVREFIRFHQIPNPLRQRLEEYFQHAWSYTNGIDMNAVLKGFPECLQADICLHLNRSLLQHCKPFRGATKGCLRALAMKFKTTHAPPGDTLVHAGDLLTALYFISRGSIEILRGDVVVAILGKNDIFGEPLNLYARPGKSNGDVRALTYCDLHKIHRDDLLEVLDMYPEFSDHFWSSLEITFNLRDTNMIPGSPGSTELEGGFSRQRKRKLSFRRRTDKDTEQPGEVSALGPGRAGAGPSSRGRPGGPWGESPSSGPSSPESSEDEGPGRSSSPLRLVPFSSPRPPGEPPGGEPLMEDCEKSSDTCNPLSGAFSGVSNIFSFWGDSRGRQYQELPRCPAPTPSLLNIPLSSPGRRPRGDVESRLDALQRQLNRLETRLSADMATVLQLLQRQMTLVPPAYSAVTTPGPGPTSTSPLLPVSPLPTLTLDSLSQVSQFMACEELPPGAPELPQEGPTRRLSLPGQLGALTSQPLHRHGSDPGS

| Structure (SMILES) | inhibition at 1.1 µM [1] [%] | inhibition at 11.1 µM [2] |
| --- | --- | --- |
| CCCCNCC(O)(c1ccc(Cl)cc1)c1ccc(Cl)cc1 | 30 | 95% (active) |
| COc1ccc(-c2nc3cc(Cc4ccc5[nH]c(-c6ccc(OC)cc6)nc5c4)ccc3[nH]2)cc1 | -7 | -1% (inactive) |
| CCOc1c(Cl)cc(CNCC(O)c2ccccc2)cc1OC (centres undefined) | 16 | 66% (active) |
| CCOC(=O)c1cnc2ccc(OC)cc2c1NCc1ccccc1 | -2 | 4% (inactive) |
| Cc1sc(NC(=O)c2ccco2)c(C(c2cccnc2)N2CCC(Cc3ccccc3)CC2)c1C (centres undefined) | -12 | 9% (inactive) |
| O=C(Nc1cccc(C2=NCCN2)c1)Nc1cccc(C2=NCCN2)c1 [IMIDOCARB] | 59 | 110% |
| CCCCc1c(CCC)c(=N)c2ccccc2n1C | 29 | 74% (active) |
| CN(C)CCCNc1c2ccccc2nc2ccccc12 | 5 | 31% |
| Cc1ccnc(NC(c2cccc(OCc3ccccc3)c2)c2ccc3cccnc3c2O)c1 (centres undefined) | 6 | 24% (inactive) |
| O=C(NCc1ccco1)C1CCN(S(=O)(=O)c2ccc(Cl)cc2)CC1 | 11 | 38% |
| FC(F)(F)c1cccc(Nc2nc(-c3ccccc3)nc3ncccc23)c1 | -8 | 0% (inactive) |
| CCOC(=O)c1cnc2ccc(CC)cc2c1O | 1 | 12% (inactive) |
| COc1ccccc1CNC(=O)C1c2ccccc2C(=O)N(CC(C)C)C1c1cccs1 (centres undefined) | -15 | 17% (inactive) |
| O=C(NC1CCCCC1)C(c1cccs1)N(CCc1ccccc1)C(=O)c1ccco1 (centres undefined) | 13 | 53% (active) |
| O=C1c2ccccc2C2=Nc3ccccc3SC(c3cccc(F)c3)C12 (centres undefined) | -4 | 4% (inactive) |
| N=c1n(CCN2CCCCC2)c2ccccc2n1CC(O)c1cccc(Br)c1 (centres undefined) | 18 | 73% (active) |
| COc1ccc(C(O)(CCC(C)C)C(CN2CCOCC2)c2ccc(Cl)cc2)cc1 (centres undefined) | 4 | 109% (active) |
| CCCn1c(=N)c(C(=O)NC2CCCCC2)cc2c(=O)n3cccc(C)c3nc21 | 63 | 105% |
| COc1ccc(C2c3ccc4ccccc4c3Oc3ncn(CCCn4ccnc4)c(=N)c32)cc1OC (centres undefined) | 23 | 25% |
| Cc1cc(N2CCCC2)nc(Nc2ccc(NC(=O)CCc3ccccc3)cc2)n1 | 9 | 116% (active) |
| O=C(O)C1Cc2c([nH]c3ccccc23)C(c2ccc(Cl)cc2Cl)N1 (centres undefined) | -5 | 34% |
| O=C(Nc1ccc(-c2nc3ccccc3[nH]2)cc1)c1ccc(Cl)c(Cl)c1 | 2 | 45% |
| COCCNCC(O)Cn1c2ccc(Cl)cc2c2cc(Cl)ccc21 (centres undefined) | 14 | 83% (active) |
| Nc1ccc(-c2nc3cc(Cc4ccc5[nH]c(-c6ccc(N)cc6)nc5c4)ccc3[nH]2)cc1 | 12 | 21% (inactive) |

| Structure (SMILES) | inhibition at 1.1 µM [1] [%] | inhibition at 11.1 µM [2] |
| --- | --- | --- |
| CCOC(=O)C1=CN(C)C=C(C(=O)OCC)C1c1cc(Br)c(OCC)c(OC)c1 | 16 | 54% (active) |
| CCOc1ccc(Nc2c3ccccc3nc3ccccc23)cc1 | 68 | 112% |
| CCOc1ccccc1NC(=O)CN1CCN(C(=O)c2ccco2)CC1 | 13 | 35% |
| COc1ccc(Nc2nc(N/N=C/c3ccc(O)cc3)nc(Nc3ccc([N+](=O)[O-])cc3)n2)cc1 | 17 | 70% (active) |
| COc1ccccc1N1C(=N)SC(=Cc2ccc(OCc3ccccc3F)cc2)C1=O | 18 | 24% (inactive) |
| Cc1c(C)n(CC(O)CNC2CCCCC2C)c2ccccc12 (centres undefined) | -10 | 20% (inactive) |
| CCN1CCN(Cc2ccc(NC(=O)c3cc4ccc5cccnc5c4[nH]3)cc2)CC1 | 41 | 106% (active) |
| C=C(C)CCC(C)N1CCC(N2CCC(C(=O)NCCc3ccccc3)CC2)CC1 (centres undefined) | 8 | 71% (active) |
| O=C(NC1CCN(Cc2ccccc2)CC1)c1cc2nc(-c3ccc(Cl)s3)cc(C(F)(F)F)n2n1 | 21 | 60% (active) |
| CCCCCCOC(=O)C1=C(C)NC(=O)NC1c1ccccc1F (centres undefined) | -2 | 1% (inactive) |
| O=C(CSc1ccc2nnc(-c3cccc(F)c3)n2n1)Nc1ccc2c(c1)OCO2 | 5 | 3% (inactive) |
| CCOc1ccc(Nc2ccnc3cc(Cl)ccc23)cc1 | 5 | 26% |
| Cc1ccccc1OCCSc1nc2ccc(NC(=O)c3cccs3)cc2s1 | 12 | 24% (inactive) |
| OC(CNC1CCCC1)Cn1c2ccccc2c2ccccc21 (centres undefined) | 8 | 55% (active) |
| CCOC(=O)C1=C(C)N=c2sc(=Cc3ccccc3O)c(=O)n2C1c1ccc(OC)c2ccccc12 (centres undefined) | 13 | 2% (inactive) |
| COc1nc(Nc2ccc(C(C)C)cc2)nc(OC)n1 | -2 | 17% (inactive) |
| CCCC(c1nnnn1C1CCCCC1)N1CCN(C(=O)c2ccco2)CC1 (centres undefined) | 3 | 52% (active) |
| Cc1ccc(C2CC(C(F)(F)F)n3nc(C(=O)N4CCN(C(c5ccccc5)c5ccccc5)CC4)cc3N2)cc1 (centres undefined) | 5 | 8% (inactive) |
| COc1ccccc1CNC(=O)CCn1c(=O)[nH]c2ccccc2c1=O | -6 | 19% (inactive) |
| CCCc1c(C)nc2ccc(Br)cc2c1O | 1 | 2% (inactive) |
| CN1c2ccccc2N(C)C1c1ccc2c(c1)OCO2 | -1 | 17% (inactive) |
| COc1cccc(C(=O)Nc2ccc(-c3nc4ccccc4[nH]3)cc2)c1 | 4 | 5% (inactive) |
| CN1CCN(c2c3c(c(C#N)c4nc5ccccc5n24)CCC3)CC1 | 7 | 45% |
| CCN(CC)c1cc(C)c2cc(NC(=O)c3cccc(OC)c3)ccc2n1 | 85 | 103% |

| Structure (SMILES) | inhibition at 1.1 µM [1] [%] | inhibition at 11.1 µM [2] |
| --- | --- | --- |
| COc1ccc2c(c1)C1(Nc3ccccc3-c3nc4ccccc4n31)C(=O)N2 (centres undefined) | 4 | 20% (inactive) |
| OC(CNCC1CCCO1)Cn1c2ccc(Cl)cc2c2cc(Cl)ccc21 (centres undefined) | 12 | 16% (inactive) |
| COc1ccc(Nc2cc(C)nc(NCc3ccccc3)n2)cc1 | > 5 | 67% (active) |
| COc1cc(-c2nc(-c3ccc(Sc4ccccc4)cc3)c(-c3ccccc3)[nH]2)cc(OC)c1O | 15 | 13% (inactive) |
| Oc1ccccc1CN1CCN(C(c2ccccc2)c2ccccc2)CC1 | 13 | 12% (inactive) |
| COc1ccc(C2=C(c3ccc(OC)cc3)C3(c4ccccc4)C(=O)C2(c2ccccc2)C2C(=O)N(c4ccc(C)cc4)C(=O)C23)cc1 (centres undefined) | -8 | 6% (inactive) |
| COc1ccc(N2CCN(C(CNC(=O)CC(C)(C)C)c3ccc4c(c3)OCO4)CC2)cc1 (centres undefined) | -5 | 24% (inactive) |
| O=C(Nc1ccc(N2CCCCC2)c(Cl)c1)c1ccc(Br)o1 | -3 | 41% |
| COc1ccc(C(C)=O)cc1N1C(=O)C2C(C1=O)C1(c3ccccc3)C(=O)C2(c2ccccc2)C(c2ccc(C)cc2)=C1c1ccc(C)cc1 (centres undefined) | -5 | -1% (inactive) |
| CCCCOC(=O)c1ccc(Nc2cc(C)nc3ccc(OC)cc23)cc1 | 65 | 91% |
| O=C(c1ccccc1F)N(Cc1ccc(Cl)cc1)c1ccccn1 | 7 | 22% (inactive) |
| Cc1nc2ccccc2c(O)c1CC=C(Cl)Cl | -1 | -2% (inactive) |
| CCN1CCCC1CNc1[nH]cnc2c3cc(Cl)ccc3nc1-2 (centres undefined) | 6 | 29% |
| Cc1cc(NC(=O)c2ccc(-c3ccccc3)cc2)no1 | -2 | 12% (inactive) |
| CCOc1ccc(-c2nc(NC(=O)c3cccc(S(C)(=O)=O)c3)sc2C)cc1 | 3 | 29% |
| CCOc1ccc(-n2cc(-c3ccccc3)c3c(SCc4cc(C)ccc4C)ncnc32)cc1 | -10 | -16% (inactive) |
| COc1ccc(C)c2sc(N(Cc3cccnc3)C(=O)c3ccc(C#N)cc3)nc12 | 1 | 69% (active) |
| CCN1CCN(c2c(C(=O)c3ccccc3)cnc3cc(OC)c(OC)cc23)CC1 | 36 | 40% |
| CC1=C(CC(=O)c2cccc([N+](=O)[O-])c2)C(=O)c2ccccc2C1=O | 9 | 17% (inactive) |
| O=C(NCC1Cc2cccc(-c3ccncc3)c2O1)c1csc2c1CCCC2 (centres undefined) | 13 | 61% (active) |
| CC(NCc1ccccc1)c1cc(Cl)ccc1O (centres undefined) | -4 | 35% |
| CC(=O)c1ccc(NC(=O)CSc2nc(-c3ccccc3Cl)ns2)cc1 | -6 | 7% (inactive) |
| CCN(CC)CCn1c(=N)n(CC(O)c2ccc(Cl)c(Cl)c2)c2ccccc21 (centres undefined) | 36 | 86% (active) |
| Cc1cc(NC(=O)c2cccc(C(F)(F)F)c2)n(-c2nc(-c3ccc4c(c3)OCO4)cs2)n1 | 12 | 6% (inactive) |
